The results in this text go back to ChEMBL document CHEMBL5375961, “Design, Synthesis, and Biological Evaluation of Trisubstituted Piperazine Derivatives as Noncovalent Severe Acute Respiratory Syndrome Coronavirus 2 Main Protease Inhibitors with Improved Antiviral Activity and Favorable Druggability” (J Med Chem, 2023).

The test system of the test is SARS-CoV-2. The test is described as follows: Antiviral activity against SARS-CoV-2 Delta (B.1.617.2) infected in African green monkey Vero E6 cells assessed as reduction in viral replication treated for 1 hr followed by replacement with fresh medium containing compounds measured after 23 hrs in presence of CP-100356 by qRT-PCR analysis. The test is classed as functional, organism-based. Particulars: Severe acute respiratory syndrome coronavirus 2, Delta (B.1.617.2), Vero C1008. (In general: In qPCR the cycle at which signal appears reflects the starting amount.)

In general, EC50 refers to the midpoint of the concentration-response curve. `CC(C)(C)[C@H](NC(=O)C(F)(F)F)C(=O)N1CC2(C[C@H]1C(=O)N[C@H](C#N)C[C@@H]1CCNC1=O)SCCS2`: the EC50 was 0.034 µM.
